According to US6358885B1, “Substituted phenylheterocyclic herbicides” (Mississippi State University, priority 1992, dated 2002):

Legend:
Assay in all cases: Test B preemergence/postemergence greenhouse plant response rating 0 to 10
[1] = system: wild oat; format: in vivo, Avena fatua; details: for Plant response rating, Wild oat: 0 to 10 scale
Outline: (§1)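 Postemergence treatment of plants two to eighteen cm tall ran alongside preemergence treatment of planted seed, each using compound in a non-phytotoxic solvent.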

[2] = system: barley; format: in vivo, Hordeum vulgare; details: for Plant response rating, Barley: 0 to 10 scale
Outline: as §1

[3] = system: soybean; format: in vivo, Glycine max; details: for Plant response rating, Soybean: 0 to 10 scale
Outline: as §1

[4] = system: cocklebur; format: in vivo, Xanthium pensylvanicum; details: for Plant response rating, Cocklebur: 0 to 10 scale
Outline: as §1

[5] = system: bedstraw; format: in vivo, Galium aparine; details: for Plant response rating, Bedstraw: 0 to 10 scale
Outline: as §1

[6] = system: purple nutsedge; format: in vivo, Cyperus rotundus; details: for Plant response rating, Nutsedge: 0 to 10 scale
Outline: as §1

[7] = system: cheatgrass; format: in vivo, Bromus secalinus; details: for Plant response rating, Cheatgrass: 0 to 10 scale
Outline: as §1

[8] = system: chickweed; format: in vivo, Stellaria media; details: for Plant response rating, Chickweed: 0 to 10 scale
Outline: as §1

[9] = system: barnyardgrass; format: in vivo, Echinochloa crus-galli; details: for Plant response rating, Barnyardgrass: 0 to 10 scale
Outline: as §1

[10] = system: morningglory; format: in vivo, Ipomoea hederacea; details: for Plant response rating, Morningglory: 0 to 10 scale
Outline: as §1

[11] = system: corn; format: in vivo, Zea mays; details: for Plant response rating, Corn: 0 to 10 scale
Outline: as §1

[12] = system: wheat; format: in vivo, Triticum aestivum; details: for Plant response rating, Wheat: 0 to 10 scale
Outline: as §1

[13] = system: rice; format: in vivo, Oryza sativa; details: for Plant response rating, Rice: 0 to 10 scale
Outline: as §1

[14] = system: giant foxtail; format: in vivo, Setaria faberii; details: for Plant response rating, Giant foxtail: 0 to 10 scale
Outline: as §1

[15] = system: sugar beet; format: in vivo, Beta vulgaris; details: for Plant response rating, Sugar beet: 0 to 10 scale
Outline: as §1

[16] = system: rape; format: in vivo, Brassica napus; details: for Plant response rating, Rape: 0 to 10 scale
Outline: as §1

[17] = system: lambsquarters; format: in vivo, Chenopodium album; details: for Plant response rating, Lambsquarter: 0 to 10 scale
Outline: as §1

[18] = system: wild buckwheat; format: in vivo, Polygonum convolvulus; details: for Plant response rating, Wild buckwheat: 0 to 10 scale
Outline: as §1

[19] = system: crabgrass; format: in vivo, Digitaria spp.; details: for Plant response rating, Crabgrass: 0 to 10 scale
Outline: as §1

[20] = system: blackgrass; format: in vivo, Alopecurus myosuroides; details: for Plant response rating, Blackgrass: POSTEMERGENCE, 0 to 10 scale
Outline: as §1

[21] = system: sorghum; format: in vivo, Sorghum bicolor; details: for Plant response rating, Sorghum: 0 to 10 scale
Outline: as §1

[22] = system: cotton; format: in vivo, Gossypium hirsutum; details: for Plant response rating, Cotton: 0 to 10 scale
Outline: as §1

[23] = system: velvetleaf; format: in vivo, Abutilon theophrasti; details: for Plant response rating, Velvetleaf: 0 to 10 scale
Outline: as §1

Clc1cc(Cl)c(-c2nn3c(c2Cl)CCCC3)cc1OCC1CC1 [Compound 69]
6: Plant response rating (0 to 10 scale), Bedstraw ([5]; PREEMERGENCE, Rate 200 g/ha) | Plant response rating, Cheatgrass ([7]; Rate 200 g/ha, POSTEMERGENCE) | Plant response rating, Barnyardgrass ([9]; Rate 200 g/ha, POSTEMERGENCE) | Plant response rating, Wheat ([12]; Rate 200 g/ha, POSTEMERGENCE) | Plant response rating, Rice ([13]; Rate 200 g/ha, POSTEMERGENCE) | Plant response rating (0 to 10 scale), Sugar beet ([15]; PREEMERGENCE, Rate 200 g/ha) | Plant response rating, Rape ([16]; POSTEMERGENCE, Rate 50 g/ha) | Plant response rating, Sorghum ([21]; Rate 200 g/ha, POSTEMERGENCE)
9: Plant response rating, Sugar beet ([15]; Rate 200 g/ha, POSTEMERGENCE) | Plant response rating, Lambsquarter ([17]; PREEMERGENCE, Rate 50 g/ha) | Plant response rating (0 to 10 scale), Velvetleaf ([23]; PREEMERGENCE, Rate 200 g/ha) | Plant response rating, Velvetleaf ([23]; Rate 200 g/ha, POSTEMERGENCE)
5: Plant response rating, Soybean ([3]; Rate 200 g/ha, POSTEMERGENCE) | Plant response rating, Bedstraw ([5]; POSTEMERGENCE, Rate 50 g/ha) | Plant response rating, Rice ([13]; POSTEMERGENCE, Rate 50 g/ha) | Plant response rating, Giant foxtail ([14]; POSTEMERGENCE, Rate 50 g/ha) | Plant response rating (0 to 10 scale), Giant foxtail ([14]; PREEMERGENCE, Rate 200 g/ha) | Plant response rating, Giant foxtail ([14]; Rate 200 g/ha, POSTEMERGENCE) | Plant response rating (0 to 10 scale), Crabgrass ([19]; PREEMERGENCE, Rate 200 g/ha) | Plant response rating, Blackgrass ([20]; Rate 200 g/ha)
8: Plant response rating, Cocklebur ([4]; POSTEMERGENCE, Rate 50 g/ha) | Plant response rating, Cocklebur ([4]; Rate 200 g/ha, POSTEMERGENCE) | Plant response rating, Rape ([16]; Rate 200 g/ha, POSTEMERGENCE) | Plant response rating, Lambsquarter ([17]; POSTEMERGENCE, Rate 50 g/ha) | Plant response rating, Lambsquarter ([17]; Rate 200 g/ha, POSTEMERGENCE)
7: Plant response rating, Bedstraw ([5]; Rate 200 g/ha, POSTEMERGENCE) | Plant response rating, Morningglory ([10]; POSTEMERGENCE, Rate 50 g/ha) | Plant response rating, Morningglory ([10]; Rate 200 g/ha, POSTEMERGENCE)
0: Plant response rating, Wild oat ([1]; PREEMERGENCE, Rate 50 g/ha) | Plant response rating (0 to 10 scale), Wild oat ([1]; PREEMERGENCE, Rate 200 g/ha) | Plant response rating, Barley ([2]; PREEMERGENCE, Rate 50 g/ha) | Plant response rating (0 to 10 scale), Barley ([2]; PREEMERGENCE, Rate 200 g/ha) | Plant response rating, Soybean ([3]; PREEMERGENCE, Rate 50 g/ha) | Plant response rating (0 to 10 scale), Soybean ([3]; PREEMERGENCE, Rate 200 g/ha) | Plant response rating, Cocklebur ([4]; PREEMERGENCE, Rate 50 g/ha) | Plant response rating (0 to 10 scale), Cocklebur ([4]; PREEMERGENCE, Rate 200 g/ha) | Plant response rating, Bedstraw ([5]; PREEMERGENCE, Rate 50 g/ha) | Plant response rating, Nutsedge ([6]; PREEMERGENCE, Rate 50 g/ha) | Plant response rating (0 to 10 scale), Nutsedge ([6]; PREEMERGENCE, Rate 200 g/ha) | Plant response rating, Cheatgrass ([7]; PREEMERGENCE, Rate 50 g/ha) | Plant response rating, Chickweed ([8]; PREEMERGENCE, Rate 50 g/ha) | Plant response rating (0 to 10 scale), Chickweed ([8]; PREEMERGENCE, Rate 200 g/ha) | Plant response rating, Barnyardgrass ([9]; PREEMERGENCE, Rate 50 g/ha) | Plant response rating, Morningglory ([10]; PREEMERGENCE, Rate 50 g/ha) | Plant response rating (0 to 10 scale), Morningglory ([10]; PREEMERGENCE, Rate 200 g/ha) | Plant response rating, Corn ([11]; PREEMERGENCE, Rate 50 g/ha) | Plant response rating (0 to 10 scale), Corn ([11]; PREEMERGENCE, Rate 200 g/ha) | Plant response rating, Wheat ([12]; PREEMERGENCE, Rate 50 g/ha) | Plant response rating, Rice ([13]; PREEMERGENCE, Rate 50 g/ha) | Plant response rating (0 to 10 scale), Rice ([13]; PREEMERGENCE, Rate 200 g/ha) | Plant response rating, Wild buckwheat ([18]; PREEMERGENCE, Rate 50 g/ha) | Plant response rating (0 to 10 scale), Wild buckwheat ([18]; PREEMERGENCE, Rate 200 g/ha) | Plant response rating, Sorghum ([21]; PREEMERGENCE, Rate 50 g/ha) | Plant response rating (0 to 10 scale), Sorghum ([21]; PREEMERGENCE, Rate 200 g/ha) | Plant response rating, Cotton ([22]; PREEMERGENCE, Rate 50 g/ha) | Plant response rating (0 to 10 scale), Cotton ([22]; PREEMERGENCE, Rate 200 g/ha)
2: Plant response rating, Soybean ([3]; POSTEMERGENCE, Rate 50 g/ha) | Plant response rating, Nutsedge ([6]; POSTEMERGENCE, Rate 50 g/ha) | Plant response rating, Nutsedge ([6]; Rate 200 g/ha, POSTEMERGENCE) | Plant response rating, Chickweed ([8]; POSTEMERGENCE, Rate 50 g/ha) | Plant response rating (0 to 10 scale), Wheat ([12]; PREEMERGENCE, Rate 200 g/ha) | Plant response rating, Giant foxtail ([14]; PREEMERGENCE, Rate 50 g/ha) | Plant response rating, Rape ([16]; PREEMERGENCE, Rate 50 g/ha) | Plant response rating, Crabgrass ([19]; PREEMERGENCE, Rate 50 g/ha) | Plant response rating (0 to 10 scale), Blackgrass ([20]; PREEMERGENCE, Rate 200 g/ha)
1: Plant response rating (0 to 10 scale), Barnyardgrass ([9]; PREEMERGENCE, Rate 200 g/ha) | Plant response rating, Velvetleaf ([23]; PREEMERGENCE, Rate 50 g/ha)
10: Plant response rating, Sugar beet ([15]; POSTEMERGENCE, Rate 50 g/ha) | Plant response rating (0 to 10 scale), Lambsquarter ([17]; PREEMERGENCE, Rate 200 g/ha) | Plant response rating, Wild buckwheat ([18]; POSTEMERGENCE, Rate 50 g/ha) | Plant response rating, Wild buckwheat ([18]; Rate 200 g/ha, POSTEMERGENCE) | Plant response rating, Cotton ([22]; POSTEMERGENCE, Rate 50 g/ha) | Plant response rating, Cotton ([22]; Rate 200 g/ha, POSTEMERGENCE) | Plant response rating, Velvetleaf ([23]; POSTEMERGENCE, Rate 50 g/ha)
3: Plant response rating, Wild oat ([1]; POSTEMERGENCE, Rate 50 g/ha) | Plant response rating, Cheatgrass ([7]; POSTEMERGENCE, Rate 50 g/ha) | Plant response rating, Chickweed ([8]; Rate 200 g/ha, POSTEMERGENCE) | Plant response rating, Corn ([11]; POSTEMERGENCE, Rate 50 g/ha) | Plant response rating, Corn ([11]; Rate 200 g/ha, POSTEMERGENCE) | Plant response rating, Sugar beet ([15]; PREEMERGENCE, Rate 50 g/ha) | Plant response rating (0 to 10 scale), Rape ([16]; PREEMERGENCE, Rate 200 g/ha) | Plant response rating, Blackgrass ([20]; Rate 50 g/ha)
4: Plant response rating, Wild oat ([1]; Rate 200 g/ha, POSTEMERGENCE) | Plant response rating, Barley ([2]; POSTEMERGENCE, Rate 50 g/ha) | Plant response rating, Barley ([2]; Rate 200 g/ha, POSTEMERGENCE) | Plant response rating (0 to 10 scale), Cheatgrass ([7]; PREEMERGENCE, Rate 200 g/ha) | Plant response rating, Barnyardgrass ([9]; POSTEMERGENCE, Rate 50 g/ha) | Plant response rating, Wheat ([12]; POSTEMERGENCE, Rate 50 g/ha) | Plant response rating, Crabgrass ([19]; POSTEMERGENCE, Rate 50 g/ha) | Plant response rating, Crabgrass ([19]; Rate 200 g/ha, POSTEMERGENCE) | Plant response rating, Sorghum ([21]; POSTEMERGENCE, Rate 50 g/ha)
